The target of one experiment is PLK4 (h) (Homo sapiens, UniProt O00444). Briefly: PLK-4 human kinase assay (SPA). The settings on record: read-out: PLK4 pIC50 (converted). In kind it is biochemical. In short, it runs like this: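 Radiometric readout: 33P-labelled peptide captured on streptavidin SPA beads after EDTA stop, imaged by Leadseeker. Reaction ran 60 min at room temperature in Hepes pH 8.0 buffer. It contained 1 μM ATP with 2 nM [γ-33P]ATP, 10 μM biotinylated peptide and PLK4 (h) at 19 μg/ml.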
Sequence of PLK4 (h) (O00444 whole entry): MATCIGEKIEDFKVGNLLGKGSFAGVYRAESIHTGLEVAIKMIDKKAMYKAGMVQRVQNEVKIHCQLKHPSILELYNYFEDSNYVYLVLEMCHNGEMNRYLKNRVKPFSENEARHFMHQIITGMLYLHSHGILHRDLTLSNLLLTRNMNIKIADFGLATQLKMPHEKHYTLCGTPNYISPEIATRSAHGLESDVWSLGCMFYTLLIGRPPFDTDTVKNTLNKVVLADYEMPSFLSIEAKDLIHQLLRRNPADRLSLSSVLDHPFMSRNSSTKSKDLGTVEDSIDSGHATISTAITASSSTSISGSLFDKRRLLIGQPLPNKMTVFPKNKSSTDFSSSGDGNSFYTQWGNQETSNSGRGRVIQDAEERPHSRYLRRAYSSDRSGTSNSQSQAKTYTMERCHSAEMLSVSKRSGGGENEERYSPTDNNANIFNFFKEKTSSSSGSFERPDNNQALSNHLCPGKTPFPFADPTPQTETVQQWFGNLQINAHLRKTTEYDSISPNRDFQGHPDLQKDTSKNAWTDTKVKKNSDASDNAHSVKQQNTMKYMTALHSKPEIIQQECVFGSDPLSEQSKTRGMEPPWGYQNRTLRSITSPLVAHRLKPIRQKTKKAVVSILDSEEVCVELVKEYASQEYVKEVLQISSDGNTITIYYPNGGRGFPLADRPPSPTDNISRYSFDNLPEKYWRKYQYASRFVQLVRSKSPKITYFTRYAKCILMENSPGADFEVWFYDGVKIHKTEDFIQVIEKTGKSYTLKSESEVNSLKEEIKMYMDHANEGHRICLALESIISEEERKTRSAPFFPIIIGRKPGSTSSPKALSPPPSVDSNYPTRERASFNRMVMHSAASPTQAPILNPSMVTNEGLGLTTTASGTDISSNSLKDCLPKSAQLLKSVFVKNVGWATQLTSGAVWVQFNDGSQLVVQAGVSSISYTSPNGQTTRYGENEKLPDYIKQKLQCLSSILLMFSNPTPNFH

A further experiment has as its target AuroraB (h) (Homo sapiens, UniProt Q96GD4). Briefly: Aurora-B human kinase assay (SPA). The following applies: read-out: AuroraB pIC50 (converted). The experiment is classed as biochemical. A digest of the protocol:
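33P-phosphorylated biotin-substrate captured on streptavidin PVT SPA beads after EDTA-containing stop and imaged on Leadseeker. Reaction: 60 min at room temperature, Hepes pH 7.5 with Mg2+/Mn2+. Conditions: 0.5 μM ATP plus 2.2 nM [γ-33P]ATP, 3 μM substrate, 0.5 μg/ml human AuroraB.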

In another experiment the target is GSK3β (h) (Homo sapiens, UniProt P49841). Kind of experiment: GSK-3β human kinase assay (SPA). In kind it is biochemical. The following applies: read-out: GSK3B pIC50 (converted). In short, it runs like this: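 Radiometric SPA read-out: after EDTA stop, biotinylated 33P-labelled peptide bound streptavidin PVT beads and was imaged on Leadseeker. Reaction: 60 min, room temperature, GSK3β (h) at 1 μg/ml, 1 μM substrate peptide, 1 μM ATP with 2 nM [γ-33P]ATP, Tris pH 7.4/MgCl2/DTT buffer.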
Sequence of GSK3β (h) (P49841 whole entry): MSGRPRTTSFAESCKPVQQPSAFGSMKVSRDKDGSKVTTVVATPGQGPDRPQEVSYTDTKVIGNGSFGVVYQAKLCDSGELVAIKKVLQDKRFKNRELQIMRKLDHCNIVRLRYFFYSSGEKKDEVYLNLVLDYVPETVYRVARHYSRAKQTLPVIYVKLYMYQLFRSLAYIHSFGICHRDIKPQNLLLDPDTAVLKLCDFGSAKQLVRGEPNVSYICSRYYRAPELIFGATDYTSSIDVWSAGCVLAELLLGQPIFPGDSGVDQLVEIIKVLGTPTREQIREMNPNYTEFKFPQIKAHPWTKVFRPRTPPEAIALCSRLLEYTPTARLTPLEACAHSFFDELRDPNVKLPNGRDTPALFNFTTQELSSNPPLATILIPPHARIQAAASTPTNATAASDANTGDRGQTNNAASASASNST

The target in another experiment is CDK1/CyclinB (h) (Homo sapiens, UniProt P06493). Kind of experiment: CDK1/CyclinB human kinase assay (FRET). The experiment is classed as biochemical. The following applies: read-out: CDK1 pIC50 (converted). In short, it runs like this:
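Kinase activity was read as the 460/538 nm emission ratio after protease cleavage of unphosphorylated peptide (60 min development). The reaction ran 60 min at room temperature with 10 μM ATP, 2 μM Ser/Thr peptide 12 and 0.2 μg/ml enzyme in Hepes pH 7.5 buffer with MgCl2, EGTA, Brij-35.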

In a further experiment the test system is A2780. Kind of experiment: Cellular proliferation assay (Alamar blue), A2780. The experiment is classed as cell-based. The settings on record: Homo sapiens, A2780, 72 h, A2780 cells, 72 hours with compound, 10% FCS, read-out: pIC50 A2780 (converted). A digest of the protocol: (§1)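 Proliferation was assessed over 72 h of compound treatment, following 24 h of seeding without compound, under 10% FCS, 37° C. and 5% CO2. Fluorescent resazurin product was measured and compared with control cells.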
A general note: The colour change of resazurin is a common sign of viable cells or microbes.

A further experiment has as its system HCT-116. Kind of experiment: Cellular proliferation assay (Alamar blue), HCT-116. The experiment is classed as cell-based. The following applies: Homo sapiens, HCT-116, 72 h, HCT-116 cells, 72 hours with compound, 10% FCS, read-out: pIC50 HCT-116 (converted). In short, it runs like this: as §1
In a further experiment the test system is H1299. Kind of experiment: Cellular proliferation assay (Alamar blue), H1299. In kind it is cell-based. The settings on record: Homo sapiens, NCI-H1299, 72 h, H1299 cells, 72 hours with compound, 10% FCS, read-out: pIC50 H1299 (converted). A digest of the protocol:
as §1

The subject of the next experiment is MDA/MB231. Briefly: Cellular proliferation assay (Alamar blue), MDA/MB231. The following applies: Homo sapiens, MDA-MB-231, 72 h, MDA/MB231 cells, 72 hours with compound, 10% FCS, read-out: pIC50 MDA/MB231 (converted). The experiment is classed as cell-based. A digest of the protocol: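 Viable cell number was assessed by resazurin-based Alamar blue fluorescence (544 nm/590 nm) after 72 h compound exposure in 10% FCS at 37° C, which followed a 24 h compound-free seeding period. Dye incubation was 24 h for MDA-MB-231 and 4 h for H460; results expressed versus control cells.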

The next experiment deals with U87MG. Briefly: Cellular proliferation assay (Alamar blue), U87MG. The following applies: Homo sapiens, U-87 MG, 72 h, U87MG cells, 72 hours with compound, 10% FCS, read-out: pIC50 U87MG (converted). In kind it is cell-based. A digest of the protocol:
as §1

The subject of the next experiment is PC-3. Briefly: Cellular proliferation assay (Alamar blue), PC-3. In kind it is cell-based. The following applies: Homo sapiens, PC-3, 72 h, PC-3 cells, 72 hours with compound, 10% FCS, read-out: pIC50 PC-3 (converted). In short, it runs like this:
as §1

The source of these data is patent publication US8338422B2, “Indolin-2-ones and aza-indolin-2-ones” (Janssen Pharmaceutica NV, priority 2007, dated 2012).

Sequence of AuroraB (h) (Q96GD4 whole entry): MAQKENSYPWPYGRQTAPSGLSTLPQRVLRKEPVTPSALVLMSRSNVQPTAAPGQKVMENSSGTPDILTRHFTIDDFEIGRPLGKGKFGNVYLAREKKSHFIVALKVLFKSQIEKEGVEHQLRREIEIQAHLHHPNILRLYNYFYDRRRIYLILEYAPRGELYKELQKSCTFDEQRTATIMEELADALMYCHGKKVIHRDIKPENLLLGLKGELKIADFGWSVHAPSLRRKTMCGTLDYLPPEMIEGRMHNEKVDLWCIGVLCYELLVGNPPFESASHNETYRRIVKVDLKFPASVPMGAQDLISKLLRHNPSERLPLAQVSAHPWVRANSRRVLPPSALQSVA
Sequence of CDK1/CyclinB (h) (P06493 whole entry): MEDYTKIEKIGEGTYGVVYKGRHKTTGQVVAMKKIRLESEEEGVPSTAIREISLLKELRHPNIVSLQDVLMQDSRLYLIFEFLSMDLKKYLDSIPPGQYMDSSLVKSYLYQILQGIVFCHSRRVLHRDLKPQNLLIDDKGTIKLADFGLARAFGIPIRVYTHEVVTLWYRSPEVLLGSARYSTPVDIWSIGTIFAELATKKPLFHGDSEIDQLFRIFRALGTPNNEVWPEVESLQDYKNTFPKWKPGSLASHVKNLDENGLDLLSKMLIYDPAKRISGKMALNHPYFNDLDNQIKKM
Sequence of CDK1/CyclinB (h) (P14635 whole entry partner): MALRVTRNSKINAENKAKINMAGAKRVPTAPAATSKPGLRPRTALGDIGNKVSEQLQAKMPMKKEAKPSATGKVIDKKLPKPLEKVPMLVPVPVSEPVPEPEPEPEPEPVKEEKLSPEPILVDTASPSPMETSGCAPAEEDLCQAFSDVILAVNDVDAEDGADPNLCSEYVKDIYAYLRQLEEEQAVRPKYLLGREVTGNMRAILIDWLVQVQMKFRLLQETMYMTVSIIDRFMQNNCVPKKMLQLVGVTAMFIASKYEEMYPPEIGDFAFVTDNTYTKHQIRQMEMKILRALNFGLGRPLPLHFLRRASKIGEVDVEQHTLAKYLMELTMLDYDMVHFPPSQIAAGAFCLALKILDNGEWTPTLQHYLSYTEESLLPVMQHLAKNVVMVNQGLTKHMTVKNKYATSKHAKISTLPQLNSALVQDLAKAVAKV

Take `CN1CCCCCCC(=O)NCCN(C)c2ncnc3c2/C(=C/Nc2cccc(c2)C1)C(=O)N3` [Compound 54]: the IC50 on PLK4 (h), on AuroraB (h), at GSK3β (h), on CDK1/CyclinB (h), in the experiment on A2780 and in the experiment with HCT-116 was over 10 µM throughout. The IC50 in the experiment with H1299, in the experiment with MDA/MB231, in the experiment with U87MG and in the experiment on PC-3 was over 10 µM in each case.

In the case of `CN1CCNC(=O)CCCOc2cc(ccc2Cl)N/C=C2\C(=O)Nc3ncnc1c32` [Compound 55], the IC50 on PLK4 (h), on AuroraB (h), at GSK3β (h), at CDK1/CyclinB (h), with A2780 and in the experiment with HCT-116 was over 10 µM in each case. In addition, the IC50 with H1299, with MDA/MB231, in the experiment with U87MG and with PC-3 was over 10 µM each time.

Consider `COc1cc2cc(c1OC)OCCCC(=O)N(C)CCCNc1ncnc3c1/C(=C/N2)C(=O)N3` [Compound 112], for which the IC50 was 0.105 µM at PLK4 (h); 0.191 µM on AuroraB (h); 0.115 µM on GSK3β (h); 0.0479 µM at CDK1/CyclinB (h); over 10 µM with A2780; 0.55 µM with HCT-116. Further, the IC50 with H1299 was 0.562 µM; in the experiment with MDA/MB231, over 10 µM; in the experiment with U87MG it was 5.25 µM; in the experiment with PC-3, over 10 µM.

Take `COc1cc2cc(c1OC)CN(C)CC(=O)N(C)CCCNc1ncnc3c1/C(=C/N2)C(=O)N3` [Compound 125]: the IC50 on PLK4 (h) is over 10 µM; on AuroraB (h), over 10 µM; at GSK3β (h) it was 9.77 µM; on CDK1/CyclinB (h), over 10 µM; in the experiment with A2780, over 10 µM; with HCT-116 it was over 10 µM. Besides, the IC50 with H1299, in the experiment with MDA/MB231, in the experiment on U87MG and in the experiment on PC-3 was over 10 µM throughout.

As to `CN1CCN(c2ccc3cc2CN(C)CCCCCC(=O)N(C)CCNc2ncnc4c2/C(=C/N3)C(=O)N4)CC1` [Compound 126], the IC50 was 0.676 µM on PLK4 (h); over 10 µM at AuroraB (h); 3.89 µM at GSK3β (h); over 10 µM on CDK1/CyclinB (h); over 10 µM in the experiment with A2780; over 10 µM in the experiment on HCT-116. Moreover, the IC50 with H1299 is over 10 µM; in the experiment on MDA/MB231 it was over 10 µM; in the experiment on U87MG it was 6.31 µM; in the experiment with PC-3, over 10 µM.

Consider `CN1CCCNc2ncnc3c2/C(=C/Nc2cc(cc(C(F)(F)F)c2)OCCCCC1=O)C(=O)N3` [Compound 130], for which the IC50 on PLK4 (h) is 4.9 µM; at AuroraB (h), 0.309 µM; on GSK3β (h) it was over 10 µM; on CDK1/CyclinB (h), over 10 µM; in the experiment with A2780 it was over 10 µM; in the experiment on HCT-116, 4.9 µM. Besides, the IC50 in the experiment on H1299 is 8.91 µM; with MDA/MB231, over 10 µM; in the experiment on U87MG, 6.31 µM; in the experiment on PC-3 it was 8.13 µM.

Regarding `COc1cc2cc(c1OC)OCCCC(=O)N(C)CCNc1ncnc3c1/C(=C/N2)C(=O)N3` [Compound 132], the IC50 on PLK4 (h) is 0.417 µM; on AuroraB (h), over 10 µM; on GSK3β (h), over 10 µM; on CDK1/CyclinB (h) it was over 10 µM; in the experiment on A2780 it was over 10 µM; with HCT-116, 0.912 µM. Moreover, the IC50 in the experiment on H1299, in the experiment with MDA/MB231, in the experiment with U87MG and with PC-3 was over 10 µM throughout.

Consider `CN1CCCCNc2ncnc3c2/C(=C/Nc2cccc(c2)OCC1=O)C(=O)N3` [Compound 143], for which the IC50 was 3.16 µM on PLK4 (h); 2.34 µM on AuroraB (h); 0.363 µM on GSK3β (h); over 10 µM at CDK1/CyclinB (h); over 10 µM with A2780; over 10 µM with HCT-116. Moreover, the IC50 in the experiment on H1299, in the experiment with MDA/MB231, in the experiment on U87MG and in the experiment on PC-3 was over 10 µM throughout.

On to `CN1CCNc2ncnc3c2/C(=C/Nc2cccc(c2)OCC(=O)N(C)CC1)C(=O)N3` [Compound 148], for which the IC50 at PLK4 (h) was 1.82 µM; at AuroraB (h), 4.47 µM; on GSK3β (h), 1 µM; at CDK1/CyclinB (h), over 10 µM; in the experiment with A2780, over 10 µM; with HCT-116, over 10 µM. Moreover, the IC50 in the experiment with H1299, in the experiment with MDA/MB231, with U87MG and in the experiment on PC-3 was over 10 µM each time.

`CN1CCNc2ncnc3c2/C(=C/Nc2cccc(c2)CN(C)CC(=O)N(C)CC1)C(=O)N3` [Compound 149]: the IC50 on PLK4 (h) was 5.01 µM; on AuroraB (h) it was over 10 µM; on GSK3β (h), 0.302 µM; on CDK1/CyclinB (h), over 10 µM; with A2780 it was over 10 µM; in the experiment with HCT-116 it was over 10 µM. In addition, the IC50 in the experiment with H1299, with MDA/MB231, in the experiment with U87MG and with PC-3 was over 10 µM each time.

Consider `COc1ccc2cc1OCC(=O)N(C)CCCCNc1ncnc3c1/C(=C/N2)C(=O)N3` [Compound 151], for which the IC50 on PLK4 (h) was 3.47 µM; at AuroraB (h) it was 2.88 µM; at GSK3β (h), 0.933 µM; on CDK1/CyclinB (h), over 10 µM; with A2780, over 10 µM; with HCT-116 it was over 10 µM. In addition, the IC50 in the experiment on H1299, in the experiment on MDA/MB231, in the experiment on U87MG and with PC-3 was over 10 µM throughout.

`COc1cc2cc(c1OC)CN(C)CC(=O)N(C)CCCCNc1ncnc3c1/C(=C/N2)C(=O)N3` [Compound 152]: the IC50 was 5.01 µM at PLK4 (h); over 10 µM on AuroraB (h); over 10 µM on GSK3β (h); over 10 µM on CDK1/CyclinB (h); over 10 µM with A2780; over 10 µM in the experiment on HCT-116. Also, the IC50 in the experiment on H1299, in the experiment with MDA/MB231, with U87MG and in the experiment with PC-3 was over 10 µM in each case.

For `COc1ccc2cc1CN(C)CC(=O)N(C)CCCCNc1ncnc3c1/C(=C/N2)C(=O)N3` [Compound 153], the IC50 is 2.57 µM on PLK4 (h); over 10 µM on AuroraB (h); 1.62 µM on GSK3β (h); over 10 µM at CDK1/CyclinB (h); over 10 µM with A2780; over 10 µM in the experiment with HCT-116. Besides, the IC50 with H1299, with MDA/MB231, in the experiment on U87MG and in the experiment on PC-3 was over 10 µM each time.

In the case of `CN1CC(=O)N(C)CCCCNc2ncnc3c2/C(=C/Nc2cccc(c2)C1)C(=O)N3` [Compound 154], the IC50 on PLK4 (h) is 2.82 µM; at AuroraB (h), over 10 µM; at GSK3β (h), 0.661 µM; on CDK1/CyclinB (h) it was over 10 µM; in the experiment with A2780 it was over 10 µM; with HCT-116, over 10 µM. For the same compound, the IC50 in the experiment on H1299, in the experiment on MDA/MB231, with U87MG and in the experiment with PC-3 was over 10 µM in each case.

With `COc1cc2cc(c1OC)CN(C)CC(=O)N(C)CCN(C)CCNc1ncnc3c1/C(=C/N2)C(=O)N3` [Compound 155], the IC50 at PLK4 (h) was 8.71 µM; on AuroraB (h) it was over 10 µM; at GSK3β (h), 6.03 µM; at CDK1/CyclinB (h), over 10 µM; with A2780, over 10 µM; in the experiment with HCT-116, over 10 µM. Further, the IC50 in the experiment on H1299, with MDA/MB231, in the experiment on U87MG and in the experiment on PC-3 was over 10 µM in each case.
